Results published in PMC3605511, “Tumor P-Glycoprotein Correlates with Efficacy of PF-3758309 in in vitro and in vivo Models of Colorectal Cancer” (Frontiers in Pharmacology, 2013).
Several values for one entry are separate records, joined by “and”; a condition that tells them apart may be missing. Equal entries are not always repeated. Where two headings read alike, the source gives them in different places.

Key:
[1] = End of study tumor and plasma concentrations (LC/MS/MS); format: in vivo, mice; settings: for Plasma concentration / Tumor concentration / Tumor: plasma ratio / concentration at 1 h / Kp at 1 h: end of study, 1 h post treatment, individual animals; for Plasma concentration / Tumor concentration / concentration at 1 h: 25 mg/kg PO BID; for concentration at 1 h: po; for Kp at 1 h: tumor and plasma, read-out: Tumor: plasma ratio
Procedure: Plasma and tumor samples were collected 1 h post treatment at the end of therapeutic studies or 6 h post treatment for P-gp tumor concentration studies. PF-309 was measured in mouse plasma and tumor tissue using a validated LC/MS/MS assay carried out by the University of Colorado Cancer Center Pharmacology Shared Resource. Positive ion electrospray ionization (ESI) mass spectra were obtained with a 3200 QTrap triple quadrupole mass spectrometer (Applied Biosystems Inc., Foster City, CA, USA) with a turboionspray source interfaced to an Agilent 1200 Series binary HPLC system (Agilent Technologies Inc., Santa Clara, CA, USA), and a HTC-PAL auto-sampler (LEAP Technologies, Carrboro, NC, USA). Samples were chromatographed with a Waters Sunfire 2.5 μm C18 column (4.6 × 50 mm; Waters Corp., Milford, MA, USA) with a Phenomenex C18 filter frit guard cartridge (Phenomenex, Torrance, CA, USA). The LC elution was done with a gradient starting at 10% Acetonitrile with 0.1% formic acid:90% 0.1% formic acid held for 1.5 min followed by a 1-min linear gradient to 98% Acetonitrile with 0.1% formic acid: 2% 0.1% formic acid at a flow rate of 750 μl/min and a sample volume of 50 μl. The total analysis time was 5.5 min.
The mass spectrometer settings were: source temperature, 600°C, ion spray voltage, 4500 V, source gas, 50, curtain gas (CUR), 10, collision gas (CAD), low, and needle position 3. Transition specific parameters used were 491.2 → 284.2/491.2 → 148.3/372.2 → 176.1: declustering potential (DP), 46.32/46.54/56.86 V, exit potential (EP), 6.45/3.23/4.08 V, collision cell entrance potential (CEP), 25.92/27.80/20.56 V, collision energy (CE), 40.00/53.10/32.75 V, collision cell exit potential (CXP), 0.42/1.47/2.72 V. Samples were quantified by the internal standard reference method in the MRM mode by monitoring for PF-3758309 transitions of m/z 491.2 → 284.2 and 491.2 → 148.3, and for the internal standard (trazodone) of m/z 372.2 → 176.1. Unknown, standard and quality control samples were extracted from mouse plasma or tumor homogenates (100 mg/ml) by the sequential addition of 5 μl 500 ng/ml internal standard (trazodone), 250 μl acetonitrile:methanol (3:1) to 50 μl plasma/tumor homogenate. Samples were then vortexed for 5 min followed by centrifugation for 10 min at 17,000 rpm. 200 μl of supernatant was then transferred to a microcentrifuge tube followed by the addition of 400 μl 0.1% formic acid followed by vortexing (5 min) and centrifugation (5 min at 13,300 rpm) and the supernatant collected (600 μl) and transferred to auto-sampler vials. The average accuracy and precision based on analysis of quality control samples was 93.1 and 98.7% for plasma samples (range: 1–2500 ng/mL) and 91.9 and 98.2% for tumor (range: 5–5000 ng/mL).
In addition to the cell line xenografts, we also treated 12 different patient derived tumor xenograft (PDTX) CRC models with PF-309 (Figure 6). We were unable to assess how ABCB1 gene expression correlated with efficacy in these models. The PDTX models are propagated in vivo, are not immortalized, and are not grown in in vitro culture. Therefore, we have observed some changes in ABCB1 gene expression in some of our models over time and the direction of the change is not consistent (data not shown). In lieu of analyzing gene expression profiles, we sought to determine if tumor concentration correlated with in vivo response. Tumor and plasma sample pairs were collected from animals at the end of study for eight tumor models (three cell line xenografts and five PDTX models) and concentrations of PF-309 were measured. […] Significant correlations (p < 0.003) were found between both tumor concentration and response and tumor to plasma ratios and response (Table 3).

DLD-1 = test: Cell proliferation assay, DLD-1; format: cell-based, human
Procedure: Cytotoxic/proliferation effects were determined using the sulforhodamine B (SRB) assay (Skehan et al., [1990]) or by resazurin. Briefly, cells in logarithmic growth phase were transferred to 96 well flat bottom plates with lids. One-hundred microliter cell suspensions containing 1500–5000 viable cells were plated into each well and incubated overnight prior to exposure with increasing concentrations of PF-309 for 3–5 days, dependent upon cell type. Media was removed and cells were fixed with cold 10% trichloroacetic acid for 30 min at 4°C. Cells were then washed with water and stained with 0.4% SRB (Fisher Sci., Pittsburgh, PA, USA) for 30 min at room temperature, washed again with 1% acetic acid, followed by stain solubilization with 10 mM tris at room temperature. The plate was then read on a plate reader (Biotek Synergy 2, Winooski, VT, USA) set at an absorbance wavelength of 565 nm. Cell proliferation curves were derived from the raw absorbance (OD) data.
In a subset of CRC cell lines, western blotting, and rhodamine efflux was used to verify the expression and function of P-gp. Consistent with the gene expression data, the sensitive cell lines, RKO, HCT116, and Colo205 show no P-gp expression and no functional P-gp, and the resistant lines, SW948, HCT15, and SW1116 express functional P-gp (Figures 3A,B). […]

With Cc1nc(Nc2n[nH]c3c2CN(C(=O)N[C@H](CN(C)C)c2ccccc2)C3(C)C)c2sccc2n1 [PF-309] the Plasma concentration ([1]; CUCRC006 model, 25 mg/kg) was 24.4 ng/mL, the Tumor concentration ([1]; CUCRC006 model, 25 mg/kg) was 3.4 ng/g and the “Tumor: plasma ratio” value ([1]; CUCRC006 model) was 0.14. For the same molecule, the Plasma concentration ([1]; CUCRC026 model, 25 mg/kg) was 25.4 ng/mL and 114 ng/mL and 69.3 ng/mL and 184 ng/mL, the Tumor concentration ([1]; CUCRC026 model, 25 mg/kg) was 6.4 ng/g and 14.5 ng/g and 22.7 ng/g and 16.8 ng/g and the “Tumor: plasma ratio” value ([1]; CUCRC026 model) was 0.25 and 0.13 and 0.33 and 0.09. For the same molecule, the Plasma concentration ([1]; CUCRC036 model, 25 mg/kg) was 40.6 ng/mL and 110 ng/mL and 81.3 ng/mL, the Tumor concentration ([1]; CUCRC036 model, 25 mg/kg) was 65.7 ng/g and 30.7 ng/g and 47.6 ng/g and the “Tumor: plasma ratio” value ([1]; CUCRC036 model) was 1.62 and 0.28 and 0.59. For the same molecule, the Plasma concentration ([1]; CUCRC042 model, 25 mg/kg) was 1.17 ng/mL and 4.58 ng/mL, the Tumor concentration ([1]; CUCRC042 model, 25 mg/kg) was 29.6 ng/g and the “Tumor: plasma ratio” value ([1]; CUCRC042 model) was 29.8 and 6.46. For the same molecule, the Plasma concentration ([1]; CUCRC047 model, 25 mg/kg) was 98.7 ng/mL, the Tumor concentration ([1]; CUCRC047 model, 25 mg/kg) was 7.5 ng/g and the “Tumor: plasma ratio” value ([1]; CUCRC047 model) was 0.08. The Plasma concentration ([1]; Colo201 model, 25 mg/kg) was 11.7 ng/mL, the Tumor concentration ([1]; Colo201 model, 25 mg/kg) was 140.4 ng/g and 11.1 ng/g and the “Tumor: plasma ratio” value ([1]; Colo201 model) was 6.72 and 0.95. The Plasma concentration ([1]; GEO model, 25 mg/kg) was 5.48 ng/mL and 54.1 ng/mL and 76.6 ng/mL, the Tumor concentration ([1]; GEO model, 25 mg/kg) was 10.2 ng/g and 15.9 ng/g and 22.9 ng/g and the “Tumor: plasma ratio” value ([1]; GEO model) was 1.9 and 0.3. The Plasma concentration ([1]; HCT15 model, 25 mg/kg) was 10.0 ng/mL and 13.2 ng/mL and 49.0 ng/mL, the Tumor concentration ([1]; HCT15 model, 25 mg/kg) was 8.9 ng/g and 8.0 ng/g and the “Tumor: plasma ratio” value ([1]; HCT15 model) was 0.68 and 0.67 and 0.16. For the same molecule, the Cmax ([1]; mouse, plasma, oral, 25 mg/kg, mice, Cmax (1 h), read-out: total plasma concentrations at the Cmax) was 10 to 100 nM, the concentration at 1 h ([1]; mouse, plasma, 25 mg/kg, CUCRC006 model, read-out: Plasma concentration) was 42.4 ng/mL and the concentration at 1 h ([1]; mouse, plasma, 25 mg/kg, CUCRC047 model, read-out: Plasma concentration) was 110 ng/mL. For the same molecule, the concentration at 1 h ([1]; mouse, plasma, 25 mg/kg, Colo201 model, read-out: Plasma concentration) was 20.9 ng/mL, the Kp at 1 h ([1]; mouse, oral, 25 mg/kg, CUCRC006 model) was 0.08 and the Kp at 1 h ([1]; mouse, oral, 25 mg/kg, CUCRC047 model) was 0.04. For the same molecule, the concentration at 1 h ([1]; mouse, tumor, 25 mg/kg, CUCRC006 model, read-out: Tumor concentration) was 3.6 ng/g, the concentration at 1 h ([1]; mouse, tumor, 25 mg/kg, CUCRC042 model, read-out: Tumor concentration) was 34.8 ng/g and the concentration at 1 h ([1]; mouse, tumor, 25 mg/kg, CUCRC047 model, read-out: Tumor concentration) was 4.4 ng/g. For the same molecule, the concentration at 1 h ([1]; mouse, tumor, 25 mg/kg, HCT15 model, read-out: Tumor concentration) was 6.8 ng/g, the “shift in the IC50 by shRNA knockdown of P-gp” value (DLD-1; DLD-1 cells, P-gp knockdown vs control shRNA) was “four to six fold” and the IC50 (DLD-1; Homo sapiens, DLD-1, PF-309 alone, 72 h) was 278 nM.
